The values below come from patent US20030060438A1, “Oligonucleotides and other modulators of the NK-1 receptor pathway and therapeutic uses thereof” (priority 2000, published 2003).

Assay type in all cases: in vivo, rat
Data set [1] deals with NK-1 receptor. Kind of data set: Formalin test, systemic (intraperitoneal) oligonucleotide. As to conditions: 300 micro grams/kg, Q12 h, 6 days prior to testing, vs saline. The method, then:
The formalin test produces a biphasic nociceptive behavior that lasts up to one hour that is believed to represent a tonic, persistent pain. The index of nociceptive behavior is assessed based a weighted pain intensity scale, where the animal is given a value of 0 for showing no signs of favoring of the injected paw, 1—favoring of hind paw such that it is resting lightly on the floor, 2—elevation of hind paw, 3—licking or vigorously shaking the hind paw. The numerical ratings were calculated by multiplying the amount of time the rats spent in each category by the weighted factor indicated above for each 5 minute interval over a one hour time period. This was expressed by the following formula: (time spent in category 0*0+time spent in category 1*1+time spent in category 2*2+time spent in category 3*3)/300 seconds. Antisense (AS) oligonucleotide (300 micro grams/kg, Q12 h, intraperitoneal) or saline was administered for 6 days prior to testing. […] Statistical analysis was performed by a two way ANOVA with time and treatment as independent measures. Time: F=9.966, p<0.001, Treatment: F=31.85, p<0.001.

Data set [2] deals with NK-1 receptor. Kind of data set: CFA arthritis model, joint flexibility, systemic oligonucleotide. As to conditions: day 18 after CFA; 300 micro grams/kg, Q12 h, intraperitoneal. The method, then:
Complete Freund's Adjuvant (CFA) was injected into the ankle joint of the rat and the flexibility of the affected joint was assessed on day 18 during the arthritic phase of the model. This was accomplished by measuring the difference between the extension and flexion of the affected joint. Antisense (AS) oligonucleotide (300 micro grams/kg, Q12 h, intraperitoneal) or saline was administered for 2 days prior to CFA injection and for the subsequent 18 days. […] Statistical analysis was performed using a one way ANOVA and post hoc analysis using the Dunnett's test.

The subject of data set [3] is NK-1 receptor. Kind of data set: Formalin test, intrathecal oligonucleotide. The method, then:
The formalin test is similar in some ways to the capsaicin test, in that a noxious chemical is injected under the skin. In the case of formalin, however, this produces nociceptive behavior lasting up to one hour, and thus represents a longer-term tonic pain. The pain score was determined using the same parameters outlined above for the capsaicin test. Oligonucleotides or ASCF control (artificial cerebral spinal fluid) were administered for 7 days prior to testing by continuous infusion (1 micro grams/microlitres/h) via Alzet® minipumps attached to intrathecal catheters for spinal delivery. […] Statistical analysis was performed by a two way ANOVA with time and treatment as independent measures. Time: F(9,44)=8.264, p<0.05, Treatment: F(9,44)=7.254, p<0.05.
Antisense (AS) oligonucleotide or ASCF control (artificial cerebral spinal fluid) was administered for 7 days prior to testing by continuous infusion (0.45 micro grams/microlitres/h) via Alzet® minipumps attached to intrathecal catheters for spinal delivery. […] Statistical analysis was performed by a two way ANOVA with time and treatment as independent measures. Time: F(9,17)=7.985, p<0.05, Treatment: F(9,17)=2.541, p>0.05.

For data set [4], the system named is NK-1 receptor. Kind of data set: Zymosan model of inflammatory bowel disease, Evans blue plasma extravasation of the colon. To be noted: 300 micro grams/kg, Q12 h, intraperitoneal for 6 days prior to rectal zymosan; Evans blue three hours after zymosan. On the procedure:
Inflammatory bowel disease (IBD) is a generic term used to describe major clinical entities including Crohn's disease and ulcerative colitis. IBD was simulated by rectal administration of zymosan, a complement-activating substance. Antisense (AS) oligonucleotide (300 micro grams/kg, Q12 h, intraperitoneal) or saline was administered for 6 days prior to zymosan administration. Three hours after administration of zymosan, rats are injected with Evans blue dye which enables the assessment of plasma extravasation of the colon (degree of inflammation). […] Statistical analysis was performed using an unpaired t-test.

Data set [5] concerns NK-1 receptor. Kind of data set: CFA arthritis model, collagen breakdown products in plasma, systemic oligonucleotide. As to conditions: days 3 and 18 following CFA injection; 300 micro grams/kg, Q12 h, intraperitoneal. The method, then: Complete Freund's Adjuvant (CFA) was injected into the ankle joint of the rat and the levels of collagen breakdown products were assessed on days 3 and 18 following CFA injection. This was accomplished by measuring collagen degradation in the plasma of blood samples taken from the tail vein of rats while lightly anesthetized with halothane anesthesia. Antisense (AS) oligonucleotide (300 micro grams/kg, Q12 h, intraperitoneal) or saline was administered for 2 days prior to CFA injection and for the subsequent 18 days. […] (Pervious experiments have identified that the levels of collagen breakdown products are maximal at day 3-5 after CFA injection). Statistical analysis was performed using an unpaired t-test.

For data set [6], the system named is NK-1 receptor. Kind of data set: Capsaicin test, nociceptive behaviour after plantar injection, intrathecal oligonucleotide. To be noted: intrathecal continuous infusion 2 micro grams/microlitres/h for 7 days; vs ACSF or MIS. The source says: The effect of intrathecal administration of NK-1 receptor antisense oligonucleotide on the nociceptive responses induced by capsaicin is shown in FIG. 2. This test consists of injecting a dilute solution of the active ingredient of hot peppers, capsaicin subcutaneously in the plantar surface of the rat hind paw. Capsaicin, C18H27NO3, is a known painful stimulus, especially of c-fibers, which are associated with substance P.
Capsaicin produces nociceptive (pain) behaviors over a period of about 5 minutes. The index of nociceptive behavior was assessed based a weighted pain intensity scale, where the animal is given a value of 0 for showing no signs of favoring of the injected paw, 1—favoring of hind paw such that it is resting lightly on the floor, 2—elevation of hind paw, 3—licking or vigorously shaking the hind paw. The numerical ratings were calculated by multiplying the amount of time the rats spent in each category by the weighted factor indicated above. This was expressed by the following formula: (time spent in category 0*0+time spent in category 1*1+time spent in category 2*2+time spent in category 3*3)/180 seconds. Oligonucleotides or ASCF control (artificial cerebral spinal fluid) were administered for 7 days prior to testing by continuous infusion (2 micro grams/microlitres/h) via Alzet™ minipumps attached to intrathecal catheters for spinal delivery. […]

Entries after “also recorded” stand apart in the source; their conditions may differ.

Consider “5′gac gtt atc cat ttt ggg g3′ (antisense GACGTTATCCATTTTGGGG; listed as DNA, chemistry not fully specified) [NK-1 receptor antisense oligonucleotide used in all experiments]”, for which the formalin-induced nociceptive scores entry in the data set with NK-1 receptor [1] is on record as “nociceptive scores are less”. In addition, in the data set on NK-1 receptor [2], the “joint flexibility (difference between extension and flexion) compared to saline controls” value is on record as “significantly improved flexibility”; the “joint flexibility compared to naïve animals” value was “not significantly different”. The “formalin-induced nociceptive responses, lower dose” value with NK-1 receptor [3] (intrathecal continuous infusion 0.45 micro grams/microlitres/h for 7 days prior to testing) was “without effect; also recorded: no attenuation”. Also, the formalin-induced nociceptive scores entry in the data set on NK-1 receptor [3] (intrathecal continuous infusion 1 micro grams/microlitres/h for 7 days prior to testing) is “nociceptive scores are less”. The “zymosan-induced plasma extravasation of the colon” value in the data set with NK-1 receptor [4] is reported as “significantly lower”. Further, in the data set with NK-1 receptor [5], the “collagen breakdown products in plasma compared to saline controls” value is on record as “significant attenuation”. In addition, the “capsaicin-induced nociceptive behavior (weighted pain score)” value in the data set with NK-1 receptor [6] is “less time spent in nociceptive behavior”.
